Measured values taken from patent US12128028B2, “Heterocyclic sulfonamide derivatives and pharmaceutical uses thereof” (METRION BIOSCIENCES LIMITED, priority 2018, dated 2024).

target: human Kv1.3 (Homo sapiens (Human), UniProt P22001); experiment: Kv1.3 potency evaluation, automated patch clamp electrophysiology (QPatch HT) in CHO-Kv1.3 cells; assay type: cell-based; details: whole-cell QPatch HT, % inhibition of charge, step to +30 mV, four concentrations, N≥3 cells, read-out: hKv1.3 IC50
Excerpt: Biological Assays Kv1.3 Potency Evaluation Electrophysiology Recordings
A proprietary Chinese hamster ovary cell line stably expressing exogenous human a-subunits of Kv1.3 (CHO-Kv1.3) channel, validated biophysically and pharmacologically in house, was used to assess the ability of test compounds to block Kv1.3 currents using automated patch clamp electrophysiology. The QPatch HT system (Sophion Bioscience A/S, Denmark) was used with the conventional whole-cell configuration. This system is an automated, chip-based planar patch clamp device allowing for up to 48 parallel independent experiments in one experimental assay run. Cells are added to each well and drawn by suction onto a small aperture to obtain a Gigaohm seal between the cell membrane and treated silicon surface, and whole-cell recordings initiated after access is achieved by suction and/or voltage pulses. The QPatch HT uses static perfusion, whereby a small volume of recording solution or drug is added to a reservoir on the chip and the solution perfuses across the cell through quartz-lined microfluidic channels; this solution is removed by capillary action when the next sample application is made.
CHO-Kv1.3 cells were prepared for experiments by dissociation from T175 cell culture flasks using trypsin-EDTA (0.05%), cells were kept in serum free media in the cell hotel on board the QPatch HT. These cells were sampled, washed and re-suspended in extracellular recording solution by the QPatch HT immediately before application to the recording well site on the chip. Experiments were performed using the following solutions; extracellular solution contained (in mM); 150 NaCl, 10 KCl, 1 MgCl2, 3 CaCl2), 10 Glucose and 10 HEPES (pH 7.4, NaOH) and intracellular solution contained (in mM); 20 KCl, 120 KF, 10 HEPES, 10 EGTA, 5 ATP (pH 7.2, KOH).
The potency (Inhibitory Concentration 50%, IC50) of synthesized compounds against Kv1.3 was determined from concentration-response relationships established by cumulatively applying four escalating concentrations of test compound to an individual cell and a minimum of N≥3 individual cells of data per compound were used to generate the IC50 value.
On achieving the whole-cell configuration; two additions of vehicle (0.1-0.3% DMSO v/v) were applied to each cell in two bolus additions with a two minute recording period between each addition (four minutes total recording time). Following the vehicle period, four concentrations of test sample were applied as two bolus additions per test concentration at two minute intervals, and the effects on current measured during the four minute recording period.
Currents were elicited using a single step voltage protocol. From a holding potential of −80 mV the cell is depolarised to +30 mV (500 ms) resulting in an outward current before finally repolarising the cell by returning to the holding potential. The command voltage was applied at a frequency of 0.067 Hz throughout the duration of the experiment. For each sweep of the voltage protocol membrane current and the passive properties of the individual cells were recorded by QPatch assay software (version 5.2). Cursors were placed to calculate the charge (integral of the current recorded during cursor interval) between 2-490 ms (0.4-99%) of the 500 ms step to +30 mV.
The % inhibition of charge for each test concentration application period was calculated as the reduction in mean charge at the end of each concentration test period relative to the charge value measured at the end of the control (i.e. vehicle) period. Sigmoidal concentration response curves (four parameter logistic curve) were fitted to the % inhibition rom which the IC50 was determined. Curve fits were constrained at 0 and 100%.

human Kv1.3, sequence (P22001 whole entry): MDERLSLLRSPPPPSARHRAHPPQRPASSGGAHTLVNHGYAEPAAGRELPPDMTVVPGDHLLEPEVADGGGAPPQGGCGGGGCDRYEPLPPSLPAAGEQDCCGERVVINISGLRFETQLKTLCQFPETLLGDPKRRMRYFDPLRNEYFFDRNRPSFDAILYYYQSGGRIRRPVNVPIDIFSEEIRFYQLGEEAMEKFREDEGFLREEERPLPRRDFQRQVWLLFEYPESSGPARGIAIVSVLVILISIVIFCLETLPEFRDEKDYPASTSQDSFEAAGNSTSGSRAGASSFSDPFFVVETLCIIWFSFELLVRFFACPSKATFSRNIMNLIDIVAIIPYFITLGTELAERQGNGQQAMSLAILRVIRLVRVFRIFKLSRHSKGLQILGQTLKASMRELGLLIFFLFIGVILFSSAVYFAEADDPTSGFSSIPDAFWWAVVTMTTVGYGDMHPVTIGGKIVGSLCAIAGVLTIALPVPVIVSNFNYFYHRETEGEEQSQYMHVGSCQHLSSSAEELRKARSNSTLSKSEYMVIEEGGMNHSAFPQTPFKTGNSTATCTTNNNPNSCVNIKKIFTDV

Structure (SMILES)	IC50 [nM]
CC1(C)N=C(C23CC(N(Cc4ccc(Cl)cc4)S(=O)(=O)c4ccccc4)(C2)C3)N[C@H]1C(=O)NCCC(F)(F)F (mixture of isomers) [Example 2]	30
CN(CCC(F)(F)F)C(=O)[C@@H]1NC(C23CC(N(Cc4ccc(Cl)c(F)c4)S(=O)(=O)c4ccccc4)(C2)C3)=NC1(C)C (mixture of isomers) [Example 3]	61
CC1(C)N=C(C23CC(N(Cc4ccc(Cl)cc4)S(=O)(=O)CC4CC4)(C2)C3)N[C@H]1C(=O)NCCC(F)(F)F (mixture of isomers) [Example 4]	79
CC1(C)N=C(C23CC(N(Cc4ccc(Cl)c(F)c4)S(=O)(=O)c4ccccc4)(C2)C3)N[C@H]1C(=O)NCC1(F)CC1 (mixture of isomers) [Example 6]	20
CCCS(=O)(=O)N(Cc1ccc(Cl)cc1)C12CC(C3=NC(C)(C)[C@H](C(=O)NCCC(F)(F)F)N3)(C1)C2 (mixture of isomers) [Example 7]	26
CC1(C)N=C(C23CC(N(Cc4ccc(Cl)cc4)S(=O)(=O)c4ccoc4)(C2)C3)N[C@H]1C(=O)NCCC(F)(F)F (mixture of isomers) [Example 8]	27
CC1(C)N=C(C23CC(N(Cc4ccc(Cl)cc4F)S(=O)(=O)c4ccccc4)(C2)C3)N[C@H]1C(=O)NCCC(F)(F)F (mixture of isomers) [Example 9]	28
CCCCS(=O)(=O)N(Cc1ccc(Cl)cc1)C12CC(C3=NC(C)(C)[C@H](C(=O)NCCC(F)(F)F)N3)(C1)C2 (mixture of isomers) [Example 10]	28
CC1(C)N=C(C23CC(N(Cc4ccc(Cl)c(F)c4)S(=O)(=O)c4ccccc4)(C2)C3)N[C@H]1C(=O)NCC1CC1(F)F (mixture of isomers) [Example 11]	28
CC1(C)N=C(C23CC(N(Cc4ccc(Cl)cc4)S(=O)(=O)c4ccccc4)(C2)C3)N[C@H]1C(=O)NC12CC(C1)C2 (mixture of isomers) [Example 12]	30
CC1(C)N=C(C23CC(N(Cc4ccc(Cl)c(F)c4)S(=O)(=O)c4ccccc4)(C2)C3)N[C@H]1C(=O)NCCC(F)(F)F (mixture of isomers) [Example 13]	37
CC1(C)N=C(C23CC(N(Cc4ccc(Cl)c(F)c4)S(=O)(=O)c4ccccc4)(C2)C3)N[C@H]1C(=O)NCC1CC1(F)F (mixture of isomers) [Example 14]	33
CC(F)(F)CNC(=O)[C@@H]1NC(C23CC(N(Cc4ccc(Cl)c(F)c4)S(=O)(=O)c4ccccc4)(C2)C3)=NC1(C)C (mixture of isomers) [Example 15]	33
CC1(C)N=C(C23CC(N(Cc4cccc(Cl)c4)S(=O)(=O)c4ccccc4)(C2)C3)N[C@H]1C(=O)NCCC(F)(F)F (mixture of isomers) [Example 16]	35
CN(C(=O)[C@@H]1NC(C23CC(N(Cc4ccc(Cl)c(Cl)c4)S(=O)(=O)c4ccccc4)(C2)C3)=NC1(C)C)C12CC(C1)C2 (mixture of isomers) [Example 17]	35
CC1(C)N=C(C23CC(N(Cc4ccc(Cl)cc4)S(=O)(=O)c4cccs4)(C2)C3)N[C@H]1C(=O)NCCC(F)(F)F (mixture of isomers) [Example 18]	36
CC1(C)N=C(C23CC(N(Cc4ccc(Cl)c(F)c4)S(=O)(=O)c4ccccc4)(C2)C3)N[C@H]1C(=O)NC[C@H]1CC1(F)F (mixture of isomers) [Example 22]	39

Further lines, results first:

IC50 [nM]	Structure (SMILES)
37	CCCNC(=O)[C@@H]1NC(C23CC(N(Cc4ccc(Cl)c(F)c4)S(=O)(=O)c4ccccc4)(C2)C3)=NC1(C)C (mixture of isomers) [Example 19]
37	CC1(C)N=C(C23CC(N(Cc4ccc(Cl)c(F)c4)S(=O)(=O)c4ccccc4)(C2)C3)N[C@H]1C(=O)NCCC1CC1 (mixture of isomers) [Example 20]
38	CC1(NC(=O)[C@@H]2NC(C34CC(N(Cc5ccc(Cl)c(F)c5)S(=O)(=O)c5ccccc5)(C3)C4)=NC2(C)C)CCC1 (mixture of isomers) [Example 21]
40	CC1(C)N=C(C23CC(N(Cc4ccc(F)cc4)S(=O)(=O)c4ccccc4)(C2)C3)N[C@H]1C(=O)NCCC(F)(F)F (mixture of isomers) [Example 23]
40	CC1(C)N=C(C23CC(N(Cc4ccc(F)c(F)c4)S(=O)(=O)c4ccccc4)(C2)C3)N[C@H]1C(=O)NCCC(F)(F)F (mixture of isomers) [Example 24]
40	CC1(C)N=C(C23CC(N(Cc4ccccc4)S(=O)(=O)c4ccccc4)(C2)C3)N[C@H]1C(=O)NCCC(F)(F)F (mixture of isomers) [Example 25]
54	CC1(C)N=C(C23CC(N(Cc4ccc(Cl)c(F)c4)S(=O)(=O)c4ccccc4)(C2)C3)N[C@H]1C(=O)NCC1(C(F)(F)F)CC1 (mixture of isomers) [Example 26]
40	C[C@@H]1CC(F)(F)CN1C(=O)[C@@H]1NC(C23CC(N(Cc4ccc(Cl)c(F)c4)S(=O)(=O)c4ccccc4)(C2)C3)=NC1(C)C (mixture of isomers) [Example 27]
40	CC(C)(F)CNC(=O)[C@@H]1NC(C23CC(N(Cc4ccc(Cl)c(Cl)c4)S(=O)(=O)c4ccccc4)(C2)C3)=NC1(C)C (mixture of isomers) [Example 28]
40	CN(C(=O)[C@@H]1NC(C23CC(N(Cc4ccc(Cl)c(Cl)c4)S(=O)(=O)c4ccccc4)(C2)C3)=NC1(C)C)C1CC(F)(F)C1 (mixture of isomers) [Example 29]
41	CC1(C)N=C(C23CC(N(Cc4ccc(Cl)c(F)c4)S(=O)(=O)c4ccccc4)(C2)C3)N[C@H]1C(=O)N1CCC12CCC2 (mixture of isomers) [Example 30]
42	CC1(C)N=C(C23CC(N(Cc4ccc(Cl)c(F)c4)S(=O)(=O)c4ccccc4)(C2)C3)N[C@H]1C(=O)N1CCCCC1 (mixture of isomers) [Example 31]
43	CCCS(=O)(=O)N(Cc1ccc(Cl)c(Cl)c1)C12CC(C3=NC(C)(C)[C@H](C(=O)NC45CC(C4)C5)N3)(C1)C2 (mixture of isomers) [Example 32]
43	CN(C(=O)[C@@H]1NC(C23CC(N(Cc4ccc(Cl)c(F)c4)S(=O)(=O)c4ccccc4)(C2)C3)=NC1(C)C)C12CC(C1)C2 (mixture of isomers) [Example 33]
47	C[C@@H](NC(=O)[C@@H]1NC(C23CC(N(Cc4ccc(Cl)c(F)c4)S(=O)(=O)c4ccccc4)(C2)C3)=NC1(C)C)C(F)(F)F (mixture of isomers) [Example 34]
44	CC(C)(F)CNC(=O)[C@@H]1NC(C23CC(N(Cc4ccc(Cl)c(F)c4)S(=O)(=O)c4ccccc4)(C2)C3)=NC1(C)C (mixture of isomers) [Example 35]
45	CC1(C)N=C(C23CC(N(Cc4ccc(Cl)c(F)c4)S(=O)(=O)c4ccccc4)(C2)C3)N[C@H]1C(=O)NCC1(F)CCC1 (mixture of isomers) [Example 36]
45	CC1(C)N=C(C23CC(N(Cc4ccc(Cl)cc4)S(=O)(=O)c4ccccc4)(C2)C3)N[C@H]1C(=O)NCC1CC(F)(F)C1 (mixture of isomers) [Example 37]
45	CN(C(=O)[C@@H]1NC(C23CC(N(Cc4ccc(Cl)c(F)c4)S(=O)(=O)c4ccccc4)(C2)C3)=NC1(C)C)C1CC(C(F)F)C1 (mixture of isomers) [Example 38]
45	CC1(C)N=C(C23CC(N(Cc4ccc(Cl)cc4)S(=O)(=O)c4ccccc4)(C2)C3)N[C@H]1C(=O)NC[C@H]1CC1(F)F (mixture of isomers) [Example 39]
46	CC1(C)N=C(C23CC(N(Cc4cccc(F)c4)S(=O)(=O)c4ccccc4)(C2)C3)N[C@H]1C(=O)NCCC(F)(F)F (mixture of isomers) [Example 40]
46	CC1(C)N=C(C23CC(N(Cc4ccc(Cl)cc4)S(=O)(=O)c4ccco4)(C2)C3)N[C@H]1C(=O)NCCC(F)(F)F (mixture of isomers) [Example 41]
46	CC1(C)N=C(C23CC(N(Cc4ccc(Cl)cc4)S(=O)(=O)C4CCCCC4)(C2)C3)N[C@H]1C(=O)NCCC(F)(F)F (mixture of isomers) [Example 42]
